Here are results for three molecules from paper PMC6874179, “Development of Macrocycle Kinase Inhibitors for ALK2 Using Fibrodysplasia Ossificans Progressiva‐Derived Endothelial Cells” (JBMR Plus, 2019).

The test system of data set [1] is FOP ECFCs. The experiment in a line: Osteogenic differentiation (mineralization) of FOP ECFCs. In kind it is cell-based, human. The conditions noted are these: osteogenic conditions, Alizarin Red; for Effect on activin A-induced osteogenic differentiation: activin A 50 ng/mL; for Effect on BMP-6-induced osteogenic differentiation: BMP-6 50 ng/mL. How it is done:
For mineralization assays, 5 × 10^4 ECs were seeded into 48‐well plates and incubated in osteogenic medium containing 10^−8M/L dexamethasone, 0.2mM/L ascorbic acid, and 10mM/L β‐glycerolphosphate in the presence of BMP/ TGF‐β ligands for 28 days. The medium was refreshed every 4 days. Afterwards, cells were washed twice with PBS and fixed with 3.7% formaldehyde for 5 min. Next, cells were washed twice with distilled water; measurement of calcium deposition was performed by Alizarin Red solution (ARS) staining, as previously described.16 Precipitates, originated from three independent ARS assays, were dissolved using 10% cetylpyridinium chloride, and absorbance was measured at 570 nm. Representative pictures were obtained using a Leica DMIL LED microscope (Leica, Wetzlar, Germany) with 10× magnification.
(§1) Cells were incubated for 21 days in chondrogenic medium containing BMP‐6 or activin A (50 ng/mL) and LDN‐193189, OD36, or OD52 at 0.5μM, prior to Alcian Blue staining. (B) Quantification of Fig. 6 A by absorbance, after solubilization with guanidine hydrochloride. (C) Chondrogenic gene expression analysis of collagen 2 (Col2), Sox9, Matrix metalloproteinase 13 (Mmp13), and collagen X (Col X) in ATDC5 cells corresponding to (A). (D) Western blot of a representative clone of FOP endothelial colony‐forming cells (ECFCs) incubated with LDN‐193189, OD36, or OD52 (0.5μM) prior to stimulation with BMP‐6 (50 ng/mL) or activin A (50 ng/mL). (E) Expression of the BMP target genes ID1 and ID3 by qPCR in FOP ECFCs stimulated with BMP‐6 (50 ng/mL) or activin A (50 ng/mL) in the presence of the indicated compounds at 0.5μM. (F) Alizarin Red solution staining on a representative clone of FOP ECFCs incubated under osteogenic conditions with BMP‐6 (50 ng/mL) or activin A (50 ng/mL) and the indicated compounds. (G) Quantification of Fig. 6 F by absorbance, after solubilization with cetylpyridinium. (H) Osteogenic genes Collagen 1 alpha 1 (Col1a1), Runx2, and osterix (Osx) expression in a representative clone of FOP ECFCs incubated under osteogenic conditions with BMP‐6 (50 ng/mL) or activin A (50 ng/mL) and LDN‐193189, OD36, or OD52 (0.5 μM). *p < 0.05, **p < 0.01, ***p < 0.001.

Data set [2] relates to FOP ECFCs. The experiment in a line: Smad1/5 activation and ID-1/ID-3 expression in FOP ECFCs. In kind it is cell-based, human. The note with it: compound 0.5μM; for Effect on activin A-induced activation of Smad1/5 and gene targets ID-1 and ID-3: activin A 50 ng/mL; for Effect on BMP-6-induced downstream signaling: BMP-6 50 ng/mL. How it is done: Total RNA extraction was performed using NucleoSpin RNA II (Machery Nagel, Düren, Germany). There were 500 ng of RNA retro‐transcribed using RevertAid First Strand cDNA Synthesis Kits (Fisher Scientific, Landsmeer, The Netherlands), and real‐time reverse transcription‐PCR experiments were performed using SYBR Green (Bio‐Rad, Veenendaal, The Netherlands) and a Bio‐Rad CFX Connect device. A list of the oligonucleotides used can be found as online supplemental data.
as §1
(§2) Cells were seeded into 6-well plates and cultured till they reached confluence. Next, cells were stimulated as indicated and then washed with cold PBS. Lysates were prepared using 2x Sample buffer (10% SDS, 62.5 mM Tris-HCl pH 6.8, 0.002 % Bromophenol Blue, 0.7135 M (5%) β-mercaptoethanol, 10 % glycerol) and boiled for 5 minutes before loading. Electrophoresis was performed in 10% SDS/polyacrylamide gels. Separated proteins were transferred to nitrocellulose membranes (0.5 A at 100 V; in ice) for 1 hour. Blots were blocked in Tris-Buffered Saline solution containing 0.1% Tween 20 and 5% non-fat dry milk overnight at 4 °C, and immune-detection of specific proteins was carried out with primary antibodies (see above) followed by horseradish peroxidase-conjugated anti-mouse or anti-rabbit (GE Healthcare, Eindhoven, The Netherlands) secondary antibodies using an ECL system (Fisher Scientific, Landsmeer, The Netherlands).

The nature of data set [3]: Microsomal incubations, rLM. In kind it is in vitro ADME. The conditions noted are these: rat, liver microsomes, pH 7.4; microsomes 0.5 mg/ml, 0.5 μM compound; read-out: Metabolic clearance rLM.
For another data set, the system named is p-Smad1/5 in 2H11 ECs. The experiment in a line: Western blot of p-Smad1/5 in 2H11 endothelial cells. The data set is classed as cell-based, mouse. The note with it: 2H11 cells, compound 0.5μM; for Inhibition of BMP-6-induced p-Smad1/5: BMP-6 50 ng/mL; for Inhibition of BMP-9-induced p-Smad1/5: BMP-9 1 ng/mL. How it is done: Compounds were added for 16 hours at 0.5μM before luciferase activity was measured.
as §2, with “Lysates were prepared using 2x Sample buffer (10% SDS, 62.5 mM Tris-HCl pH 6.8, 0.002 % Bromophenol Blue, 0.7135 M (5%) β-mercaptoethanol, 10 % glycerol) and boiled for 5 minutes before loading.” left out
On the technique in general: A western blot detects proteins with antibodies after separation by electrophoresis.

A further data set addresses T1, ALK_L1196M (Homo sapiens, UniProt Q9UM73, L1196M).
T1 construct: purchased DiscoverX
The experiment in a line: Proqinase Kinase profiling. In kind it is biochemical. The conditions noted are these: read-out: % inhibition at 100nM.

A further data set addresses T2, LYN (Homo sapiens, UniProt P07948).
T2 construct: purchased DiscoverX
The experiment in a line: Proqinase Kinase profiling. In kind it is biochemical. The note with it: read-out: % inhibition at 100nM.

Another data set has as its target T3, RPS6KA2 (Homo sapiens, UniProt Q15349).
T3 construct: purchased DiscoverX
The experiment in a line: Proqinase Kinase profiling. In kind it is biochemical. The note with it: read-out: % inhibition at 100nM.

The target of a further data set is T4, FLT3_D835Y (Homo sapiens, UniProt P36888, D835Y).
T4 construct: purchased DiscoverX
The data set can be described thus: Proqinase Kinase profiling. The data set is classed as biochemical. The conditions noted are these: read-out: % inhibition at 100nM.

The target in the next data set is T5, CAMKK2 (Homo sapiens, UniProt Q96RR4).
T5 construct: purchased DiscoverX
T5 sequence (Q96RR4 whole entry): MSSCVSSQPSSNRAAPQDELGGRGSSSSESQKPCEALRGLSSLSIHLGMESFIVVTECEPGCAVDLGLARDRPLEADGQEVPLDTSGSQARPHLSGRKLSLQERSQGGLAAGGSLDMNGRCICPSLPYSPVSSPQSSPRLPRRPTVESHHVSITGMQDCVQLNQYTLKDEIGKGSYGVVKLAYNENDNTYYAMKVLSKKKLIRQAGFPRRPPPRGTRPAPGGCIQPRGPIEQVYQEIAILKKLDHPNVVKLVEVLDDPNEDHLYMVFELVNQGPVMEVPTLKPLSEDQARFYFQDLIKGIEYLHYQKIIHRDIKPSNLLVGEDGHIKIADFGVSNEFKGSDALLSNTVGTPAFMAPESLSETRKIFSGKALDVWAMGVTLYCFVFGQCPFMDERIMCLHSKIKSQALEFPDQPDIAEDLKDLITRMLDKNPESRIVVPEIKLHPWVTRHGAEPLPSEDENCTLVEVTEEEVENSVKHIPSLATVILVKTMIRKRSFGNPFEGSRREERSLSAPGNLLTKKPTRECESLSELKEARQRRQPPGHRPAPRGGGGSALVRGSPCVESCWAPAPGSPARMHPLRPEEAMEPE
The experiment in a line: Proqinase Kinase profiling. In kind it is biochemical. The conditions noted are these: read-out: % inhibition at 100nM.

Another data set addresses T6, MARK1 (Homo sapiens, UniProt Q9P0L2).
T6 construct: purchased DiscoverX
The experiment in a line: Proqinase Kinase profiling. In kind it is biochemical. The conditions noted are these: read-out: % inhibition at 100nM.

The target of another data set is T7, PHKG2 (Homo sapiens, UniProt P15735).
T7 construct: purchased DiscoverX
T7 sequence (P15735 whole entry): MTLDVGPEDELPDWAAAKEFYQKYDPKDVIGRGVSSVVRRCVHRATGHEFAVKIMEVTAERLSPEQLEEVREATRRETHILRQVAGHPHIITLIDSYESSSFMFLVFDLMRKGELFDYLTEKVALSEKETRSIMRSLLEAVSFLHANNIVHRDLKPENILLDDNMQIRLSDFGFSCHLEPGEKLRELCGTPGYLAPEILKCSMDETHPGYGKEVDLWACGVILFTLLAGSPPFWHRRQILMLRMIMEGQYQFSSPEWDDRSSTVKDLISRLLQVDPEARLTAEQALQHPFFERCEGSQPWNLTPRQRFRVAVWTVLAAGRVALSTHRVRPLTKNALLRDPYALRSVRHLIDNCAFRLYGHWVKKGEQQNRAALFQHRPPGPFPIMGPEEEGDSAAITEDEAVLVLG
The experiment in a line: Proqinase Kinase profiling. In kind it is biochemical. The conditions noted are these: read-out: % inhibition at 100nM.

The next data set deals with T8, CSNK1G3 (Homo sapiens, UniProt Q9Y6M4).
T8 construct: purchased DiscoverX
T8 sequence (Q9Y6M4 whole entry): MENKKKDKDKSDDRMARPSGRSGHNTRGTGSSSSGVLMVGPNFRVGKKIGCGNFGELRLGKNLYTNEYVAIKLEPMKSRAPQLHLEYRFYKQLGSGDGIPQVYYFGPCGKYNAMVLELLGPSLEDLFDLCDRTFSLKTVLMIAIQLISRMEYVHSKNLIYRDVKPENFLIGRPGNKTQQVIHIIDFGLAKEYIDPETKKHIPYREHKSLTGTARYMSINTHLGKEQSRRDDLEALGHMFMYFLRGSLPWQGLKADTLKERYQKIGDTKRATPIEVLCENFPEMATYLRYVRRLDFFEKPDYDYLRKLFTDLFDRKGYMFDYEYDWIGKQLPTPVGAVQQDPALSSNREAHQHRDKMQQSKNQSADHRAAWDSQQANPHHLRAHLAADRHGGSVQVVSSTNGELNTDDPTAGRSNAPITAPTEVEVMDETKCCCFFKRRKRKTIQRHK
The data set can be described thus: Proqinase Kinase profiling. The data set is classed as biochemical. The note with it: read-out: % inhibition at 100nM.

The target of a further data set is T9, CDK4_cyclinD3 (Homo sapiens, UniProt P11802).
T9 construct: purchased DiscoverX
T9 sequence (P11802 whole entry): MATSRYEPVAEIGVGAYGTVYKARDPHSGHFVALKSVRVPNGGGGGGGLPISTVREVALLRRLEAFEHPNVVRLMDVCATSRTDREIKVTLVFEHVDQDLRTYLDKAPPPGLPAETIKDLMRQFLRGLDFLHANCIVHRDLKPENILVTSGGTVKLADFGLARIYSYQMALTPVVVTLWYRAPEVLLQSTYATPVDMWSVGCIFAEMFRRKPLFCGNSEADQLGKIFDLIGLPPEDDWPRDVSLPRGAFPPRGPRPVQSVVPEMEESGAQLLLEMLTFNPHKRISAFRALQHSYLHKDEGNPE
T9 sequence (P30281 whole entry partner): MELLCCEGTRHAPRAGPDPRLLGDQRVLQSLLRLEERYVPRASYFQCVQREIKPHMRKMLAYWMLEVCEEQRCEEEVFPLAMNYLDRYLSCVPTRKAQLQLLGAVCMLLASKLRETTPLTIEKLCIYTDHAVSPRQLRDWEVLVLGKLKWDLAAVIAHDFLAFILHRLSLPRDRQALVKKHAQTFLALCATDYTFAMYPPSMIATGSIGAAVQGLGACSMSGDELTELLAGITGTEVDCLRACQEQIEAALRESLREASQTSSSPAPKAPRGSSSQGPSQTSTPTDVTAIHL
The data set can be described thus: Proqinase Kinase profiling. The note with it: read-out: % inhibition at 100nM. In kind it is biochemical.

For the next data set, the target named is T10, PRKD2 (Homo sapiens, UniProt Q9BZL6).
T10 construct: purchased DiscoverX
T10 sequence (Q9BZL6 whole entry): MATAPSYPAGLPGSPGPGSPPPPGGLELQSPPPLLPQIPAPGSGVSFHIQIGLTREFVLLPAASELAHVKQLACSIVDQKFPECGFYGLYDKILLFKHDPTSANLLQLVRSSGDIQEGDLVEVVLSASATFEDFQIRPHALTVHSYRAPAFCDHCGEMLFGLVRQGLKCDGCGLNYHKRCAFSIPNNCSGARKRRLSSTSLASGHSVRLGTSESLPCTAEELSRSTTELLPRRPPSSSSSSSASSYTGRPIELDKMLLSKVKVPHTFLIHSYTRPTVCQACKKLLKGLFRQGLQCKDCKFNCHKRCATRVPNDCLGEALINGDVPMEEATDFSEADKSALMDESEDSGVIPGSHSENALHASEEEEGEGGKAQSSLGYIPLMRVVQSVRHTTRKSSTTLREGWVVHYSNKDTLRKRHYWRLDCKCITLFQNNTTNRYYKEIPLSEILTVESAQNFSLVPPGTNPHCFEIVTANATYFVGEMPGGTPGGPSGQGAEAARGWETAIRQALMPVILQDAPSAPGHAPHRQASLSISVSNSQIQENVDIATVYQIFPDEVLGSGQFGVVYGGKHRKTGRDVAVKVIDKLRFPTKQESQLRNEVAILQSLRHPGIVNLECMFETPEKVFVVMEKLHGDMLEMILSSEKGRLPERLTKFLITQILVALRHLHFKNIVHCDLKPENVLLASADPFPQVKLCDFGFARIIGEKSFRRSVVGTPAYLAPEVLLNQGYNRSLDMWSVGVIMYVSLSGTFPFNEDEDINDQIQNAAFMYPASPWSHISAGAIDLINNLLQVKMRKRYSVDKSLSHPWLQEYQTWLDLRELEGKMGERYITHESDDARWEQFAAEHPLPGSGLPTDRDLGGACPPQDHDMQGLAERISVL
The experiment in a line: Proqinase Kinase profiling. The note with it: read-out: % inhibition at 100nM. The data set is classed as biochemical.

Another data set deals with T11, FGFR3_K650E (Homo sapiens, UniProt P22607, K650E).
T11 construct: purchased DiscoverX
The experiment in a line: Proqinase Kinase profiling. In kind it is biochemical. The conditions noted are these: read-out: % inhibition at 100nM.

T2 sequence (P07948 whole entry): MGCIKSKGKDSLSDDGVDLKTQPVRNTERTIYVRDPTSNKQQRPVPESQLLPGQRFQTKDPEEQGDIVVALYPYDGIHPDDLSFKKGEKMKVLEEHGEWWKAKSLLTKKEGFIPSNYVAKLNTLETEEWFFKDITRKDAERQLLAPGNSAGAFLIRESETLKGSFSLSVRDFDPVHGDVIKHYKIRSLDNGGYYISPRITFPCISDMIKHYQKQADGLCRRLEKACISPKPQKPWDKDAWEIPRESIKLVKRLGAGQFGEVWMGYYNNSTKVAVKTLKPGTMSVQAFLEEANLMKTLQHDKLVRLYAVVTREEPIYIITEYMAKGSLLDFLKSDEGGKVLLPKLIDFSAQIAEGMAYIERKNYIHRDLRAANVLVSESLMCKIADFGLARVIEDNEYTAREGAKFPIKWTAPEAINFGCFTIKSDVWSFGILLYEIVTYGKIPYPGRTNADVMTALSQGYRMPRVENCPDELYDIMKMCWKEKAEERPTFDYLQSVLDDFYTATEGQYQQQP
T6 sequence (Q9P0L2 whole entry): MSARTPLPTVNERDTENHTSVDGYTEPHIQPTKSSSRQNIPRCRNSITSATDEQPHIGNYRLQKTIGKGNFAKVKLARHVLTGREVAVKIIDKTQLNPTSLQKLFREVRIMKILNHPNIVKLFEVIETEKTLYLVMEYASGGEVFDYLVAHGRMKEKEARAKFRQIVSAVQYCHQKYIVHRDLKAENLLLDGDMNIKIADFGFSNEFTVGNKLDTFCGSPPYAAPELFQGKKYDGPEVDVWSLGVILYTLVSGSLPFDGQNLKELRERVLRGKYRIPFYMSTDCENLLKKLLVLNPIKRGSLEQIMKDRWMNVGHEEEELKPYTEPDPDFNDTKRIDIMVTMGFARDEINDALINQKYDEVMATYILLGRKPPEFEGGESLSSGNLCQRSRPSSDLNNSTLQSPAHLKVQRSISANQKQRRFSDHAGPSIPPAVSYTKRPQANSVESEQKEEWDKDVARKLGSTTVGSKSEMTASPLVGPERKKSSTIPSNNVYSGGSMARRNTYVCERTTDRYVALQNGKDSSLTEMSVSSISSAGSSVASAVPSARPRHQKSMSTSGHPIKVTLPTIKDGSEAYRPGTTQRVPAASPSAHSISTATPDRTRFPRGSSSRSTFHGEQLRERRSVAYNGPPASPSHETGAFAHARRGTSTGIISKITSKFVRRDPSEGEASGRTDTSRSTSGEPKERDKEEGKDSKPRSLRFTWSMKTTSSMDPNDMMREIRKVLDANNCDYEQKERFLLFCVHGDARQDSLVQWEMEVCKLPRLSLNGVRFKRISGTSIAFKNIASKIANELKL
T3 sequence (Q15349 whole entry): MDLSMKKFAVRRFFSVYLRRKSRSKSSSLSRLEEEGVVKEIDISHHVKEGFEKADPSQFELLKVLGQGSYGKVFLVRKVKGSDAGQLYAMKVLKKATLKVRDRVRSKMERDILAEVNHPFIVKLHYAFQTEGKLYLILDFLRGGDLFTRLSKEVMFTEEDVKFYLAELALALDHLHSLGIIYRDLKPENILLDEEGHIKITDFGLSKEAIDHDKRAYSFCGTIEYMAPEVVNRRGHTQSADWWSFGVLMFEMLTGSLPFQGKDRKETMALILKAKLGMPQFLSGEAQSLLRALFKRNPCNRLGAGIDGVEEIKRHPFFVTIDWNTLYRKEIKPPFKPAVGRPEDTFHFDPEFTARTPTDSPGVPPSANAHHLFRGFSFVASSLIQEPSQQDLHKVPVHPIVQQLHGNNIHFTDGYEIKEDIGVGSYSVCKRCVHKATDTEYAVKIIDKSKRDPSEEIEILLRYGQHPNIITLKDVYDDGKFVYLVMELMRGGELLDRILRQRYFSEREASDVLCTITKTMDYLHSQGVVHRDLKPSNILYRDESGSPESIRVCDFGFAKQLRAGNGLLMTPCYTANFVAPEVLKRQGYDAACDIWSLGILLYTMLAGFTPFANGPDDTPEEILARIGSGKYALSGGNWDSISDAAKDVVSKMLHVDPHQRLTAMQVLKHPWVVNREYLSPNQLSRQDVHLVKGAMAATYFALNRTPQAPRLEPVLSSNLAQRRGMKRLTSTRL

In the case of `c1ccc2c(-c3cnn4cc(-c5ccc(N6CCNCC6)cc5)cnc34)ccnc2c1` [LDN-193189, reference compound], in the data set on FOP ECFCs [1], the “Effect on activin A-induced osteogenic differentiation” value is “inhibited”. The “Effect on activin A-induced activation of Smad1/5 and gene targets ID-1 and ID-3” value (shortened to “Effect on activin A-induced activation”) in the data set with FOP ECFCs [2] is listed as “inhibited”. The microsomal CLint at 0.5 μM in data set [3] stood at 185 µL/min/mg. Besides, in the data set with p-Smad1/5 in 2H11 ECs, the “Inhibition of BMP-6-induced p-Smad1/5” value is on record as “efficiently blocked” and the “Inhibition of BMP-9-induced p-Smad1/5” value is “efficiently blocked”.
As for `Clc1cc2cc(c1)-c1cnn3ccc(nc13)NCCOCCO2` [OD36], the inhibition (in general, the change of the read-out against control, counted positive when it falls) at 0.1 µM at ALK_L1196M was -7%; at LYN, 43%; at RPS6KA2, 7%; at FLT3_D835Y, 62%; at CAMKK2, 3%; at MARK1, 11%. Besides, the inhibition at 0.1 µM is 1% at PHKG2; 3% on CSNK1G3; -30% at CDK4_cyclinD3; 9% on PRKD2; 8% on FGFR3_K650E. For the same molecule, the “Effect on BMP-6-induced osteogenic differentiation” value in the data set on FOP ECFCs [1] was “modest effect”. In addition, the “Effect on activin A-induced osteogenic differentiation” value with FOP ECFCs [1] is on record as “efficiently blocked”. Further, the “Effect on BMP-6-induced downstream signaling” value in the data set with FOP ECFCs [2] was “less effective”. In the data set with FOP ECFCs [2], the “Effect on activin A-induced activation” value is “completely prevented”. Besides, in data set [3], the microsomal CLint at 0.5 μM came out at 74 µL/min/mg. Besides, the “Inhibition of BMP-6-induced p-Smad1/5” value in the data set on p-Smad1/5 in 2H11 ECs is on record as “only inhibited BMP‐9‐induced p‐Smad1/5”. Also, the “Inhibition of BMP-9-induced p-Smad1/5” value in the data set on p-Smad1/5 in 2H11 ECs is reported as “only inhibited BMP‐9‐induced p‐Smad1/5”.
With `Cc1cc2cc(c1)-c1cnn3ccc(nc13)NCCNC(=O)CCN(C)C2` [OD52], the inhibition at 0.1 µM on ALK_L1196M was -6%; at LYN, -14%; on RPS6KA2, -2%; on FLT3_D835Y, 4%; at CAMKK2, 2%; at MARK1, -9%. The inhibition at 0.1 µM was -10% at PHKG2; 2% on CSNK1G3; -5% at CDK4_cyclinD3; 4% at PRKD2; -7% at FGFR3_K650E. Besides, the “Effect on BMP-6-induced osteogenic differentiation” value in the data set with FOP ECFCs [1] was “modest effect”. For the same molecule, the “Effect on activin A-induced osteogenic differentiation” value in the data set on FOP ECFCs [1] is reported as “efficiently blocked”. Moreover, the “Effect on BMP-6-induced downstream signaling” value in the data set on FOP ECFCs [2] is “less effective”. Moreover, the “Effect on activin A-induced activation” value in the data set on FOP ECFCs [2] is listed as “completely prevented”. Also, in [3], the microsomal CLint at 0.5 μM stood at 32 µL/min/mg. Moreover, the “Inhibition of BMP-6-induced p-Smad1/5” value in the data set on p-Smad1/5 in 2H11 ECs is recorded as “only inhibited BMP‐9‐induced p‐Smad1/5”. In the data set with p-Smad1/5 in 2H11 ECs, the “Inhibition of BMP-9-induced p-Smad1/5” value was “only inhibited BMP‐9‐induced p‐Smad1/5”.
